The values below come from paper PMC11861696, “The First K^+-Channel Blocker Described from Tityus fasciolatus Venom: The Purification, Molecular Cloning, and Functional Characterization of α-KTx4.9 (Tf5)” (Toxins, 2025).

Positions of bridges follow the written chain, without caps; N, C: chain ends. Residues, ends and D or L forms follow the SMILES beside them. No end group written: not given here.

Experiment [1] concerns the target T1, Kv1.2 (Homo sapiens, UniProt P16389).
T1 construct: expressed in transfected cells; host or cells: HEK293T
The experiment can be described thus: whole-cell patch-clamp, K+ current of Kv1.2 in HEK293T. It is filed as cell-based. The procedure:
(§1) Human Embrionary kidney HEK293T cells were grown in Dulbeccos’s Modified Eagle’s Medium (Sigma-Aldrich, St. Louis, MO, USA) supplemented with 10% fetal calf serum (GIBCO-ThermoFischer, Waltham, MA, USA) and 1% Antibiotic-Antimycotic® (GIBCO-ThermoFischer, Waltham, MA, USA). HEK293T cells were transfected with 1 μg of pcDNA3-Kv1.1, pcDNA3-Kv1.2, or pcDNA3-Kv1.4 and 0.1 μg of EGFP (Clontech Laboratories, Palo Alto, CA, USA) using Lipofectamine 3000 (ThermoFischer, Waltham, MA, USA). L929 cells expressing the Kv1.3 channel were grown in Dulbeccos’s Modified Eagle’s Medium (Sigma-Aldrich) supplemented with 10% fetal calf serum and 100 units/mL of penicillin and 10 µg/mL of streptomycin. Cells were grown in an incubator with a moist atmosphere and 5% CO2, at a constant temperature of 37 °C.
(§2) Potassium macrocurrents (IKs) were measured in whole-cell mode using a HEKA EPC 10 USB amplifier and controlled by PATCHMASTER software version 2x92 (HEKA Elektronik, Lambrecht, Germany). Experiments were performed at a room temperature of 23 °C. […]
(§3) The pipette (internal) solution contained (mM) KCl 140, MgCl2 2, CaCl2 1, EGTA 10, and HEPES 10, with a pH of 7.3 corrected with KOH and an experimental osmolarity of 337 mOsmol. […] The solutions’ osmolarity was measured with a K-7400S semi-micro osmometer (Knauer Berlin, Germany). […]

Experiment [2] deals with T2, Kv1.3 (Mus musculus, UniProt P16390).
T2 construct: expressed in transfected cells; host or cells: L929
Briefly: whole-cell patch-clamp, K+ current of Kv1.3 in L929. It is filed as cell-based. The procedure:
as §1, §2, §3

For experiment [3], the system named is A549 carcinoma cell. More on the design: method as in PMID 21087602. As to conditions: cited from earlier work.
Experiment [4] has as its target T2, Kv1.3. As to conditions: cited from earlier work.
For experiment [5], the target named is T1, Kv1.2. The conditions noted are these: cited from earlier work.

T1 sequence (P16389 whole entry): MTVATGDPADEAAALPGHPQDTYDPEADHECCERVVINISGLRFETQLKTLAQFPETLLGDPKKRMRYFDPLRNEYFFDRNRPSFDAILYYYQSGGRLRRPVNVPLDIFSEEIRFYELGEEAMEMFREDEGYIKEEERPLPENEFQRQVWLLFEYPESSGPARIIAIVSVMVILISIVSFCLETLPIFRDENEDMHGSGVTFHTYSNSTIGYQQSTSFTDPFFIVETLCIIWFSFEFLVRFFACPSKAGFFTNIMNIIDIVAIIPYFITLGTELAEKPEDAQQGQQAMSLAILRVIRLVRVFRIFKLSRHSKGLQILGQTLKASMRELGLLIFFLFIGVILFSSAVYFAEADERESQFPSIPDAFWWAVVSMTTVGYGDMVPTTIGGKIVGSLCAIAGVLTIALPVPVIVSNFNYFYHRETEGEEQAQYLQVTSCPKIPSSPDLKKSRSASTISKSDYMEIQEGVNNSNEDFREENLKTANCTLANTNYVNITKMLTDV
T2 sequence (P16390 whole entry): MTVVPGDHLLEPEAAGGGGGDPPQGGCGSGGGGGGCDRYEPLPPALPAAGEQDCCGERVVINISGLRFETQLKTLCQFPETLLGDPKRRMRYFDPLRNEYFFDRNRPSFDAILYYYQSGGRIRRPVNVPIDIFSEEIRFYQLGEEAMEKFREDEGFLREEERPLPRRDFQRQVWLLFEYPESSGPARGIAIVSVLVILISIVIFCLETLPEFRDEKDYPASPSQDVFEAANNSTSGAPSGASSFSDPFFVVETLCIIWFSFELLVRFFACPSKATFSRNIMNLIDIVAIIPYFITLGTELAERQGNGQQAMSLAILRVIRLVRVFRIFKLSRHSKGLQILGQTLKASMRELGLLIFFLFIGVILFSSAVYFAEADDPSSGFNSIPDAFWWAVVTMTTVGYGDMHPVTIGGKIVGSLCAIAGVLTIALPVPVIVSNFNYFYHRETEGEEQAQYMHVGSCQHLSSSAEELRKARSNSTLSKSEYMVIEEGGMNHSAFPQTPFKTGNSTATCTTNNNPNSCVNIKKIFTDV

For the molecule `CC[C@H](C)[C@@H]1NC(=O)[C@H](C)NC(=O)[C@H](CCC(=O)O)NC(=O)[C@H](CCCCN)NC(=O)[C@@H]2CSSC[C@@H](C(=O)N[C@@H](Cc3ccc(O)cc3)C(=O)N3CCC[C@H]3C(=O)O)NC(=O)[C@H](CCCCN)NC(=O)[C@@H]3CSSC[C@H](NC(=O)[C@H](CCC(=O)O)NC(=O)[C@@H]4CCCN4C(=O)[C@H](CO)NC(=O)CNC(=O)[C@H](CCCNC(=N)N)NC(=O)[C@@H](NC(=O)[C@H](CCCNC(=N)N)NC(=O)[C@H](C)NC(=O)[C@H](CC(N)=O)NC(=O)[C@@H](NC(=O)[C@H](Cc4ccccc4)NC(=O)[C@@H](N)C(C)C)[C@@H](C)CC)CSSC[C@H](NC(=O)[C@H](CCCCN)NC(=O)CNC(=O)[C@H](C)NC(=O)[C@H](CO)NC(=O)[C@H](CCCCN)NC(=O)CNC1=O)C(=O)N[C@@H](CCSC)C(=O)N[C@@H](CC(N)=O)C(=O)NCC(=O)N[C@@H](CCCCN)C(=O)N3)C(=O)N[C@@H](CC(C)C)C(=O)N1CCC[C@H]1C(=O)N[C@@H](CCCCN)C(=O)N2` [Tf5] (H-VFINARCRGSPECLPKCKEAIGKSAGKCMNGKCKCYP-OH; disulfide 7-28, 13-33, 17-35), the inhibition at 0.5 µM is 90.2 ± 3.78% in experiment [1] (HEK-293T, 500 nM Tf5, HEK293T transfected with pcDNA3-Kv1.2, whole-cell, stimulated at 30 mV over 200 ms from -80 mV, 23 °C, n = 9) and 81.8 ± 4.29% in experiment [2] (500 nM Tf5, L929 cells expressing Kv1.3, whole-cell, stimulated at 30 mV over 200 ms from -80 mV, 23 °C, n = 7). For the same molecule, the IC50 is 15.5 nM in experiment [1] (dose–response curve, Figure 5E, n ≥5 for each concentration, read-out: Log IC50 Kv1.2 (converted)) and 116 nM in experiment [2] (dose–response curve, Figure 5F, n ≥5 for each concentration, read-out: Log IC50 Kv1.3 (converted)).

Regarding “MgTx: isolated from the scorpion Centruroides margaritatus, Kv1.2 and Kv1.3 blocker (TIINVKCTSPKQCLPPCKAQFGQSAGAKCMNGKCKCYPH; ends and bridges not checked; cysteine pairing not given here; UniProt P40755 1-39, looked up)”, in experiment [3], the “viability of A549 carcinoma cell cultures” value is given as “reduce the viability”. Moreover, in experiment [4], the “block of Kv1.3” value was “Kv1.2 and Kv1.3 blocker”. In experiment [5], the “block of Kv1.2” value is “Kv1.2 and Kv1.3 blocker”.
